Reference: US6903125B2, “Tetrahydro-2H-thiopyran-4-carboxamide derivative” (Yamanouchi Pharmaceutical Co., Ltd., priority 2003, dated 2005)
pEC50: −log10 of the molar value. Read-outs that look alike come from different tables or passages of the source.

Assays:
VZV (strain CaQu) = assay: Anti-VZV activity assay (plaque reduction in HEF cells); assay type: cell-based, varicella zoster virus
Description: This experiment was carried out based on the method described by Shigeta S., The Journal of Infectious Diseases, 147, 3, 576-584 (1983). Briefly, 10,000 human embryonic fibroblast (HEF) cells were inoculated in a 96-well microtiter plate, using a growth culture medium [Eagle MEM (Nissui) supplemented with 10% (v/v) fetal bovine serum (FBS; Sigma)], for culturing in 5% CO2 at 37° C. for 4 days until a monolayer was formed. After the cells were washed with a maintenance culture medium (MEM supplemented with 2% FBS), VZV (strain CaQu) preliminarily diluted to 20 to 30 pfu/100 μl with the maintenance culture medium was inoculated at 100 μl/well. The plate was centrifuged at 2,000 rpm at ambient temperature for 20 minutes and was then incubated in 5% CO2 at 37° C. for 3 hours, for infection with VZV. After the plate was washed three times with the maintenance culture medium, 100 μl of a test drug diluted to an appropriate concentration with the maintenance culture medium was added to each well. After the cells were cultured in 5% CO2 at 37° C. for 3 to 4 days, 10% formalin/PBS was added at 100 μl/well to fix the cells for 2 to 3 hours. After discarding the fixing solution and culture supernatant and subsequently washing the plate with water, a staining solution (0.025% Crystal Violet) was added at 50 μl/well for staining for 2 to 3 minutes, and then, the plate was washed with water and dried at 37° C. Cellular death is induced in the HEF cells infected with VZV, so that plaques of the dead cells are formed in the monolayer of the HEF cells.

HSV-1 (strain KOS) = assay: Anti-HSV-1 activity assay (MTT, MRC-5 cells); assay type: cell-based; settings: HSV-1 strain KOS in MRC-5 cells, 5 days culture, read-out: EC50 value (suppression of cellular death of MRC-5 cells via HSV-1 replication)
Description: 10,000 MRC-5 cells were inoculated and cultured in a 96-well microtiter plate, using the growth culture medium in 5% CO2 at 37° C. for 4 to 5 days until a monolayer was formed. After the cells were washed with the maintenance culture medium, 100 μl of the maintenance culture medium dissolving therein an appropriate concentration of a test reagent was added to each well. Immediately after the test drug was added, an HSV-1 (strain KOS) solution was inoculated at 50 TCID50 (50% tissue culture infectious dose)/100 μl. After the cells were cultured in 5% CO2 at 37° C. for 5 days, 20 μl of MTT solution [3-(4,5-dimethyl-2-thiazolyl)-2,5-diphenyl-2H-tetrazolium bromide; Sigma] (diluted with PBS to 7.5 mg/ml) was added to each well, for another 24-hour incubation. After the culture medium was discarded, 100 μl of a solvent (prepared by adding 10% (v/v) Triton X 100 and 0.4% hydrochloric acid to isopropanol) was added to each well, to solubilize the generated formazan. The absorbance at 540 nm or 690 nm was measured with a microplate reader. Based on the suppression ratio (%) of the cellular death of the MRC-5 cell via HSV-1 replication, the EC50 value of the test drug was calculated.

HSV-1 strain WT-51 = assay: Cutaneously HSV-1-infected hairless mice model; assay type: in vivo, hairless mice [HR-1]; settings: oral, methyl cellulose suspension, 10 mg/kg twice daily for 5 days; from AUC of mean composite disease score over 17 days
Description: Female hairless mice [HR-1, 7 weeks of age] were infected with a virus suspension containing HSV-1 strain WT-51 (1.5×10^4 PFU/15 μl) on the lateral side of the body, which had scratched with a needle, while anesthetized with diethyl ether, as previously described by H. Machida et al. [Antiviral Res., 1992, 17, 133-143]. Tested compounds were administered orally as a methyl cellulose suspension, except for compounds marked with asterisk which were dissolved in 20% Cremophor EL and 20% polyethylene glycol, starting at 3 hours after the infection, and then at a dose of 10 mg/kg twice daily for a period of 5 days. Hairless mice were inspected daily and disease severity was determined using the following criteria: • Score 0: no signs of infection. • Score 1: localized, barely perceptible small vesicles. • Score 2: slight vesicle spread. • Score 3: large patches of vesicles formed. • Score 4: zosteriform vesicles. • Score 5: large patches of ulcers formed. • Score 6: zosteriform with severe large ulcers. • Score 7: hind limb paralysis or death.
The zosteriform skin lesion and neurological scores for each animal were combined to produce a composite score. The mean composite score was used to represent the disease in each study group. The disease course was measured for 17 days and the extent of the disease was represented by the area under the curve (AUC) of the mean daily composite disease score each day after viral inoculation. The inhibitory activities of tested compounds were calculated using the AUCs.

[1] = Human alphaherpesvirus 3, read-out: EC50 value (concentration to inhibit 50% of the plaques), plaque count after 3 to 4 days
[2] = Human alphaherpesvirus 1, MRC5, 120 h

pEC50 (VZV (strain CaQu); [1])	SMILES	pEC50 (VZV (strain CaQu); read-out: EC50 value (concentration to inhibit 50% of the plaques), plaque count after 3 to 4 days)	pEC50 (HSV-1 (strain KOS))	Inhibitory activity (%) (HSV-1 strain WT-51)	pEC50 (HSV-1 (strain KOS); [2])
	O=C(CN(C(=O)C1CCS(=O)(=O)CC1)c1ccc2c(c1)CCC2)Nc1ccc(-c2cocn2)cc1 [Example 11]	7.22	7.40	92%	
7.48	Cc1cc(N(CC(=O)Nc2ccc(-c3cocn3)cc2)C(=O)C2CCS(=O)(=O)CC2)ccc1Cl [Example 13, N-(4-chloro-3-methylphenyl)-N-(2-{[4-(1,3-oxazol-4-yl)phenyl]amino}-2-oxoethyl)tetrahydro-2H-thiopyran-4-carboxamide 1,1-dioxide]				8.22
7.12	Cc1cccc(C)c1N(CC(=O)Nc1ccc(-c2cocn2)cc1)C(=O)C1CCS(=O)(=O)CC1 [Example 1, N-(2,6-dimethylphenyl)-N-(2-{[4-(1,3-oxazol-4-yl)phenyl]amino}-2-oxoethyl)tetrahydro-2H-thiopyran-4-carboxamide 1,1-dioxide]				7.12
7.09	Cc1ccc(N(CC(=O)Nc2ccc(-c3ncon3)cc2)C(=O)C2CCS(=O)(=O)CC2)c(C)c1F [Example 39, N-(3-fluoro-2,4-dimethylphenyl)-N-(2-{[4-(1,2,4-oxadiazol-3-yl)phenyl]amino}-2-oxoethyl)tetrahydro-2H-thiopyran-4-carboxamide 1,1-dioxide]				7.54
	Cc1ccc(N(CC(=O)Nc2ccc(-c3cocn3)cc2)C(=O)C2CCS(=O)(=O)CC2)cc1 [Example 2, N-(4-methylphenyl)-N-(2-{[4-(1,3-oxazol-4-yl)phenyl]amino}-2-oxoethyl)tetrahydro-2H-thiopyran-4-carboxamide 1,1-dioxide]			85%	
5.47	Nc1nc2c(ncn2COCCO)c(=O)[nH]1 [acyclovir, reference compound]				6.32
	Cc1cccc(N(CC(=O)Nc2ccc(-c3ncon3)cc2)C(=O)C2CCS(=O)(=O)CC2)c1C [Example 24, N-(2,3-dimethylphenyl)-N-(2-{[4-(1,2,4-oxadiazol-3-yl)phenyl]amino}-2-oxoethyl)tetrahydro-2H-thiopyran-4-carboxamide 1,1-dioxide]			69%	
7.02	Cc1cc(N(CC(=O)Nc2ccc(-c3ncon3)cc2)C(=O)C2CCS(=O)(=O)CC2)ccc1Cl [Example 37, N-(4-chloro-3-methylphenyl)-N-(2-{[4-(1,2,4-oxadiazol-3-yl)phenyl]amino}-2-oxoethyl)tetrahydro-2H-thiopyran-4-carboxamide 1,1-dioxide]				7.59

SMILES	pEC50 (VZV (strain CaQu); [1])	pEC50 (VZV (strain CaQu); read-out: EC50 value (concentration to inhibit 50% of the plaques), plaque count after 3 to 4 days)	pEC50 (HSV-1 (strain KOS))	Inhibitory activity (%) (HSV-1 strain WT-51)	pEC50 (HSV-1 (strain KOS); [2])
Cc1cccc(C)c1N(CC(=O)Nc1ccc(-c2ncon2)cc1)C(=O)C1CCS(=O)(=O)CC1 [Example 27, N-(2,6-dimethylphenyl)-N-(2-{[4-(1,2,4-oxadiazol-3-yl)phenyl]amino}-2-oxoethyl)tetrahydro-2H-thiopyran-4-carboxamide 1,1-dioxide]	7.00			86%	7.22
